Laboratory results taken from paper PMC11767451, “Novel Approaches to Monitor Pharmacokinetics and Metabolism of Gemcitabine-Ibandronate Conjugate in Mice and Dogs” (Molecules, 2025).

Tests used:
[1] = Stability in mouse plasma (accelerated, freeze-thaw, frozen PK samples); assay type: in vitro ADME; details: for %-ACC, frozen PK sample stability: mouse plasma PK samples re-extracted after 1.5 years at <−70 °C; for %-ACC (% accuracy vs nominal): 3 freeze-thaw cycles (<−70 °C / bench)
Protocol: For stability testing, QC samples were prepared by spiking plasma with QC stock solutions. These stability samples were stored for the predetermined time periods before extraction (accelerated stability and freeze–thaw stability) or after extraction (autosampler stability) and were run with freshly prepared calibrator standards. For accelerated stability, samples were stored at 4 °C and at room temperature for 4 h and 24 h prior to sample extraction. […] Assay A compounds (GEM-IB and IB) were also tested at 1 h and 2 h exposed to 4 °C and at room temperature to evaluate for which duration GEM-IB is stable.
Freeze–thaw cycle stability was assessed by storing the stability samples overnight in the freezer (<−70 °C) and thawing them the next day on the bench. Once thawed, samples were placed back into the freezer. This was carried out for three freeze–thaw cycles for all compounds.
To assess the stability of study samples, PK samples were re-extracted after storage at <−70 °C for 1.5 years (see Supplementary Table S4).
(§1) Method development and validation was conducted following applicable FDA guidelines for bioanalytical assays, as considered fit for purpose. Specificity. Endogenous interferences were excluded by analysis of blank plasma from 6 different individual lots of plasma. The lower limit of quantification (LLOQ) was determined as the lowest concentration consistently achieving an accuracy better than ±20% of the nominal concentration, with imprecision ≤20%. Predefined acceptance criteria. The performance of the assay was considered acceptable if intra- and inter-day imprecision (coefficient of variance, %CV) at each concentration was ≤15%, except at the LLOQ (≤20%). Intra- and inter-day accuracy had to be ±15% of the nominal value, except at the LLOQ (±20%). Calibration curves had to have a correlation coefficient (r) of 0.99 or better. Analytical recovery and imprecision. Intra- and inter-day analytical accuracy and imprecision were tested at least at four concentration levels depending on the LLOQ for each compound. Intra-day imprecision and accuracy were determined with n = 6 per QC level. Inter-day imprecision and accuracy were measured over 3 days, with six replicates for each QC concentration (n = 18). Extraction efficiency and matrix effect. Extraction efficiency for GEM-IB and metabolites was established by comparing the signals of the analytes after the extraction of QCs (n = 6/concentrations), with the signals of the extracted blank matrix spiked with the respective concentrations of analytes after the extraction procedure. The matrix effect was determined by comparing the analyte LC-MS/MS signal after spiking of the analyte into the extracted blank matrix (matrix from 6 different individual lots, analyte concentrations as for the QC samples) with the HPLC-MS/MS signal of the same amount of analyte in neat solution [25]. Carry-over. Carry-over was assessed by injecting blank buffer samples after analysis of the highest calibrators. Carry-over was considered insignificant if there was no signal at the relevant retention times exceeding 20% of the analyte signals at the LLOQ. Stability. QC samples were freshly prepared. One set was extracted and was analyzed immediately to determine baseline signals.

[2] = Autosampler stability of extracted mouse plasma samples at 4 °C; assay type: physicochemical
Protocol: (§2) The stability of extracted dog and mouse plasma samples in the autosampler at 4 °C was established for 24 and 48 h. Except for GEM-IB, in mouse and dog plasma extracts, all analytes were within ±20% of the nominal enriched concentration for up to 48 h in the autosampler. GEM-IB was stable for up to 24 h under these conditions.
as §1, with “signals. Analyte stability in plasma was evaluated at two QC concentration levels (n = 3/concentration level) under different conditions: 1, 2, and 24 h at room temperature and at 4 °C. In addition, stability after extraction was determined after 24 h and 48 h at 4 °C in the autosampler and for up to 3 freeze (−70 °C)–thaw (ambient) cycles. Stability was assessed by comparing analyte concentrations with baseline (t0) concentrations. Stability was assumed when the results were within ±20% of the baseline concentrations. Long-term stability estimates were performed by re-extraction of samples used during the PK study (n = 6). Samples were initially analyzed for the PK assessment and were stored for 1.5 years (GEM-IB and IB) and 2.5 years (GEM, GEMMP, dFdU, and dFdU-MP) at <−70 °C prior to reanalysis. Stability was assessed by comparing analyte concentrations with the initial assessments. Stability was acceptable when the results were within ±20% of the baseline concentrations and the percent standard deviation (%-SD) was below 25%.” for “signals.”

[3] = Autosampler stability of extracted dog plasma samples at 4 °C; assay type: physicochemical
Protocol: as §2
as §1, with “signals. Analyte stability in plasma was evaluated at two QC concentration levels (n = 3/concentration level) under different conditions: 1, 2, and 24 h at room temperature and at 4 °C. In addition, stability after extraction was determined after 24 h and 48 h at 4 °C in the autosampler and for up to 3 freeze (−70 °C)–thaw (ambient) cycles. Stability was assessed by comparing analyte concentrations with baseline (t0) concentrations. Stability was assumed when the results were within ±20% of the baseline concentrations. Long-term stability estimates were performed by re-extraction of samples used during the PK study (n = 6). Samples were initially analyzed for the PK assessment and were stored for 1.5 years (GEM-IB and IB) and 2.5 years (GEM, GEMMP, dFdU, and dFdU-MP) at <−70 °C prior to reanalysis. Stability was assessed by comparing analyte concentrations with the initial assessments. Stability was acceptable when the results were within ±20% of the baseline concentrations and the percent standard deviation (%-SD) was below 25%.” for “signals.”

[4] = mouse plasma, 2 hours 4°C / on ice (IB and GEM-IB, footnote)
[5] = mouse plasma, 2 hours RT (IB and GEM-IB, footnote)

Row | Structure (SMILES) | %-ACC, frozen PK sample stability [1] | %-ACC (% accuracy vs nominal) ([1]; mouse plasma) [%] | %-ACC (percent mean accuracy vs nominal) ([1]; mouse plasma, 4 hours 4°C) [%] | %-ACC (percent mean accuracy vs nominal) ([1]; mouse plasma, 4 hours RT) [%] | %-ACC (percent mean accuracy vs nominal) ([1]; mouse plasma, 24 hours 4°C) [%] | %-ACC (percent mean accuracy vs nominal) ([1]; mouse plasma, 24 hours RT) [%] | %-ACC (% accuracy vs nominal) ([2]; 24 hours autosampler 4 °C) [%] | %-ACC (% accuracy vs nominal) ([2]; 48 hours autosampler 4 °C) [%] | %-ACC (% accuracy vs nominal) ([3]; 24 hours autosampler 4 °C) [%] | %-ACC (% accuracy vs nominal) ([3]; 48 hours autosampler 4 °C) [%] | percent of the nominal concentration ([1]; mouse plasma, 1 h on ice) | %-ACC (percent mean accuracy vs nominal) [1, 4] [%] | %-ACC (percent mean accuracy vs nominal) [1, 5] [%] | time stable on ice ([1]; mouse plasma, on ice) | accelerated stability, result in words ([1]; mouse plasma, up to 24 h at 4 °C / on ice and room temperature) | freeze–thaw stability, result in words ([1]; one and two freeze–thaw cycles, matrix not stated, presumably mouse plasma)
1 | Nc1ccn([C@@H]2O[C@H](CO)[C@@H](O)C2(F)F)c(=O)n1 [GEM, gemcitabine] | 94.2% ± 11.8 | 103.4 | 94.5 | 89.3 | 87.9 | 91.0 | 102.0 | 107.0 | 100.7 | 106.8 | – | – | – | – | – | –
2 | CCCCCN(C)CCC(O)(P(=O)(O)O)P(=O)(O)OP(=O)(O)OC[C@H]1O[C@@H](n2ccc(N)nc2=O)C(F)(F)[C@@H]1O (some centres unmarked) [GEM-IB] | – | 16.9 | – | – | 2.9 | 0.0 | 96.8 | 59.7 | 86.2 | 63.4 | 89.2% ± 7.0 | 64.2 | 31.0 | up to 1 h | – | –
3 | Nc1ccn([C@@H]2O[C@H](COP(=O)(O)O)[C@@H](O)C2(F)F)c(=O)n1 [GEMMP, gemcitabine-5′-phosphate] | failed the criteria | 92.4 | 91.9 | 87.9 | 91.4 | 88.1 | 96.9 | 100.4 | 92.4 | 90.0 | – | – | – | – | – | –
4 | CCCCCN(C)CCC(O)(P(=O)(O)O)P(=O)(O)O [IB, ibandronate] | – | 94.5 | – | – | 99.7 | 101.7 | 97.6 | 98.6 | 111.2 | 107.7 | – | 97.0 | 106.4 | – | stable | stable
5 | O=c1ccn([C@@H]2O[C@H](CO)[C@@H](O)C2(F)F)c(=O)[nH]1 [dFdU, 2′,2′-difluoro-2′-deoxyuridine] | failed the criteria | 109.5 | 84.5 | 83.8 | 87.0 | 85.2 | 103.9 | 103.4 | 99.0 | 102.0 | – | – | – | – | – | –
6 | O=c1ccn([C@@H]2O[C@H](COP(=O)(O)O)[C@@H](O)C2(F)F)c(=O)[nH]1 [dFdUMP, 2′,2′-difluoro-2′-deoxyuridine-5′-phosphate] | failed the criteria | 87.7 | 83.0 | 80.5 | 81.9 | 81.5 | 102.4 | 98.8 | 92.6 | 84.8 | – | – | – | – | – | –
